Measured values published in ChEMBL document CHEMBL1150453, “Novel catalytic activity of immobilized spores under reduced water activity” (1997).

Columns and labels:
Type in all cases: functional
Aspergillus ochraceus [1] = experiment: Compound was tested for transformation of progesterone by Dehydrated immobilized spores of Aspergillus orchraceus TS using the method Ethylacetate
Aspergillus ochraceus [2] = experiment: Compound was tested for transformation of progesterone by Dehydrated immobilized spores of Aspergillus orchraceus TS using the method n-Butylacetate
Aspergillus ochraceus [3] = experiment: Compound was tested for transformation of progesterone by Dehydrated immobilized spores of Aspergillus orchraceus TS using the method Amylacetate
Aspergillus ochraceus [4] = experiment: Compound was tested for transformation of progesterone by Dehydrated immobilized spores of Aspergillus orchraceus TS using the method Freeze-thaw
Aspergillus ochraceus [5] = experiment: Compound was tested for transformation of progesterone by immobilized spores of Aspergillus orchraceus TS

SMILES | Activity (Aspergillus ochraceus [1]) | Activity (Aspergillus ochraceus [2]) | Activity (Aspergillus ochraceus [3]) | Activity (Aspergillus ochraceus [4]) | Activity (Aspergillus ochraceus [5])
CC(=O)[C@@]1(O)CC[C@H]2[C@@H]3CCC4=CC(=O)CC[C@]4(C)[C@H]3CC[C@@]21C [HYDROXYPROGESTERONE] | 20.8 uM (g of spores)-1 | 12.2 uM (g of spores)-1 | 13.8 uM (g of spores)-1 | – | –
C[C@]12CCC(=O)C=C1CC[C@@H]1[C@@H]2CC[C@]2(C)C(=O)CC[C@@H]12 [ANDROSTENEDIONE] | 58.7 uM (g of spores)-1 | 40.4 uM (g of spores)-1 | 42.6 uM (g of spores)-1 | 14.7 uM (g of spores)-1 | –
C[C@]12C=CC(=O)C=C1CC[C@@H]1[C@@H]2CC[C@]2(C)C(=O)CC[C@@H]12 [ANDROSTENEDONE] | 22.2 uM (g of spores)-1 | 15.8 uM (g of spores)-1 | 16.1 uM (g of spores)-1 | 14.4 uM (g of spores)-1 | –
CC(=O)OC1CCC2C3CCC4=CC(=O)CCC4(C)C3CCC12C (stereo unspecified) | – | – | – | 5 uM (g of spores)-1 | –
CC(=O)C1CCC2C3CCC4=CC(=O)C=CC4(C)C3CCC12C (stereo unspecified) | 23.6 uM (g of spores)-1 | 13.8 uM (g of spores)-1 | 16.1 uM (g of spores)-1 | 7.6 uM (g of spores)-1 | –
C[C@]12CC[C@H]3[C@@H](CCC4=CC(=O)CC[C@@]43C)[C@@H]1CC[C@@H]2O [TESTOSTERONE] | 3.9 uM (g of spores)-1 | 2.6 uM (g of spores)-1 | 2.7 uM (g of spores)-1 | 5.5 uM (g of spores)-1 | –
C[C@]12CCC(=O)C[C@@H]1CC[C@@H]1[C@@H]2CC[C@]2(C)[C@@H](O)CC[C@@H]12 [STANOLONE] | 4.2 uM (g of spores)-1 | 2.7 uM (g of spores)-1 | 2.9 uM (g of spores)-1 | 5.8 uM (g of spores)-1 | –
CC(=O)C1CCC2C3CCC4=CC(=O)CCC4(C)C3[C@@H](O)CC12C (stereo partly specified) | – | – | – | 14 uM (g of spores)-1 | 27.2 uM (g of spores)-1
